In paper PMC10243363 (ACS chemical neuroscience, 2022):
Structures can show the parent of a compound that is named as a salt. Where two headings read alike, the source gives them in different places.

Legend:
KOR [1] = target: T1, KOR (Mus musculus, UniProt P33534); experiment: Competitive radioligand binding assay, KOR; settings: for Selectivity D/K: ratio of Ki DOR/KOR; for Selectivity M/K: ratio of Ki MOR/KOR
MOR [2] = target: T2, MOR (Mus musculus, UniProt P42866); experiment: Competitive radioligand binding assay, MOR; settings: ratio of Ki DOR/MOR
KOR [3] = target: T1, KOR; experiment: [35S]-GTPγS binding assay, mKOR-CHO membrane; type: biochemical; settings: mean ± SEM; for KOR %Emax: %Emax = 100 defined using 5 μM U50,488H; for EC50: read-out: KOR EC50
DOR = DOR (Mus musculus, UniProt P32300); experiment: [35S]-GTPγS binding assay, mDOR-CHO membrane; type: biochemical; settings: for DOR %Emax: %Emax = 100 defined using 5 μM SNC80; for DOR %Emax / EC50: mean ± SEM; for EC50: read-out: DOR EC50
MOR [4] = target: T2, MOR; experiment: [35S]-GTPγS binding assay, mMOR-CHO membrane; type: biochemical; settings: for MOR %Emax: %Emax = 100 defined using Emax of 3 μM DAMGO; for MOR %Emax / EC50: mean ± SEM; for EC50: read-out: MOR EC50
mice [5] = experiment: Warm-water tail immersion; type: in vivo, mouse; settings: for Antinociception potency ED50 (95% CL): 20 min after injection; for Blocking of the antinociception of 0.1 mg/kg NMF by selective antagonist: nor-BNI, β-FNA 10 mg/kg s.c. 24 h prior, NTI 15 mg/kg s.c. 30 min prior; for Antinociceptive effect (%MPE) in single-dose screening: 20 min, vs vehicle
[6] = Caco-2 permeability assay; settings: human, Caco-2
[7] = cited from earlier work
mice [8] = settings: cited from earlier work
[9] = 0.003 mg/kg; cited from earlier work
[10] = 0.03 mg/kg; cited from earlier work
monkeys = settings: 0.001 mg/kg; cited from earlier work
[11] = Weight change under chronic administration; settings: 10 mg/kg s.c. twice daily, mice
[12] = cited from earlier work; remark: listed apart in the source

Compound	Selectivity D/K (KOR [1])	Selectivity M/K (KOR [1])	Selectivity D/M (MOR [2])	KOR %Emax (KOR [3])	EC50 (KOR [3])	DOR %Emax (DOR)	EC50 (DOR)	MOR %Emax (MOR [4])	EC50 (MOR [4])	further results
CN(C(=O)/C=C/c1ccoc1)[C@@H]1CC[C@@]2(O)[C@H]3Cc4cccc5c4[C@@]2(CCN3CC2CC2)[C@H]1O5.Cl [Compound 16, (2E)-N-[6β-17-(Cyclopropylmethyl)-4,5α-epoxy-14-hydroxy-morphinan-6-yl]-3-(3-furanyl)-N-methyl-2-propenamide hydrochloride]	343	42	8.1	94.6 ± 2.9%	59 ± 7.1 nM	107 ± 8%	2100 ± 400 nM	17.5 ± 4.4%	1800 ± 1100 nM	Antinociception potency ED50 (95% CL) (mice [5]; mice, s.c.): 1.610 (1.057 - 2.452) mg/kg
COC(=O)/C=C/C(=O)N[C@@H]1CC[C@@]2(O)[C@H]3Cc4ccc(O)c5c4[C@@]2(CCN3CC2CC2)[C@H]1O5 [β-FNA, reference compound]	–	–	–	–	–	–	–	–	–	Blocking of the antinociception of 0.1 mg/kg NMF by selective antagonist (mice [5]): not able to block the antinociception
Oc1ccc2c3c1O[C@H]1c4[nH]c5ccccc5c4C[C@@]4(O)[C@@H](C2)N(CC2CC2)CC[C@]314 [NTI, reference compound]	–	–	–	–	–	–	–	–	–	Blocking of the antinociception of 0.1 mg/kg NMF by selective antagonist (mice [5]): able to reduce the antinociception
CC(C)NCC(O)COc1cccc2ccccc12 (centres unmarked) [Propranolol]	–	–	–	–	–	–	–	–	–	Papp A→B at 10 µM [6]: 23.8 ± 0.4 ×10⁻⁶ cm/s; Papp B→A at 10 µM [6]: 25.6 ± 0.7 ×10⁻⁶ cm/s
Cl.O=C(/C=C/c1ccoc1)N[C@@H]1CC[C@@]2(O)[C@H]3Cc4ccc(O)c5c4[C@@]2(CCN3CC2CC2)[C@H]1O5 [Compound 10, (2E)-N-[6β-17-(Cyclopropylmethyl)-3,14-dihydroxy-4,5α-epoxy-morphinan-6-yl]-3-(3-furanyl)-2-propenamide hydrochloride]	26	1.8	15	95.2 ± 4.9%	0.36 ± 0.02 nM	103 ± 11%	24.8 ± 4.7 nM	40.8 ± 2.2%	1.36 ± 0.14 nM	Antinociception potency ED50 (95% CL) (mice [5]; mice, s.c.): 2.414 (1.720 - 3.388) mg/kg
Cl.O=C(/C=C/c1ccoc1)N[C@H]1CC[C@@]2(O)[C@H]3Cc4cccc5c4[C@@]2(CCN3CC2CC2)[C@H]1O5 [Compound 13, (2E)-N-[6α-17-(Cyclopropylmethyl)-4,5α-epoxy-14-hydroxy-morphinan-6-yl]-3-(3-furanyl)-2-propenamide hydrochloride]	1.7	1.9	0.9	103 ± 2%	135 ± 25 nM	102 ± 8%	714 ± 87 nM	22.8 ± 2.1%	283 ± 49 nM	Antinociceptive effect (%MPE) in single-dose screening (mice [5]; 10 mg/kg s.c., mice): absence of antinociception
CC[C@@H]1CN2CCc3c([nH]c4cccc(OC)c34)[C@H]2C[C@@H]1/C(=C\OC)C(=O)OC [speciociliatine]	–	–	–	–	–	–	–	–	–	PPB [7]: 90-99%
Cl.O=C(/C=C/c1ccoc1)N[C@@H]1CC[C@@]2(O)[C@H]3Cc4cccc5c4[C@@]2(CCN3CC2CC2)[C@H]1O5 [Compound 14, (2E)-N-[6β-17-(Cyclopropylmethyl)-4,5α-epoxy-14-hydroxy-morphinan-6-yl]-3-(3-furanyl)-2-propenamide hydrochloride]	345	26	14	97.9 ± 2.4%	46 ± 6.8 nM	107 ± 13%	1500 ± 140 nM	27.7 ± 1.1%	167 ± 23 nM	Antinociception potency ED50 (95% CL) (mice [5]; mice, s.c.): 3.827 (1.224 -11.97) mg/kg
Oc1ccc2c3c1O[C@H]1c4[nH]c5c(c4C[C@@]4(O)[C@@H](C2)N(CC2CC2)CC[C@]314)C[C@@]1(O)[C@H]2Cc3ccc(O)c4c3[C@@]1(CCN2CC1CC1)[C@H]5O4 [nor-BNI, reference compound]	–	–	–	–	–	–	–	–	–	Blocking of the antinociception of 0.1 mg/kg NMF by selective antagonist (mice [5]): able to reduce the antinociception
mitragynine	–	–	–	–	–	–	–	–	–	PPB [7]: 90-99%
CN(C(=O)/C=C/c1ccoc1)[C@@H]1CC[C@@]2(O)[C@H]3Cc4ccc(O)c5c4[C@@]2(CCN3CC2CC2)[C@H]1O5 [Compound 12, (2E)-N-[6β-17-(Cyclopropylmethyl)-3,14-dihydroxy-4,5α-epoxy-morphinan-6-yl]-3-(3-furanyl)-N-methyl-2-propenamide hydrochloride]	–	–	–	–	–	moderate-to-high efficacy	–	–	–	Emax (DOR; read-out: DOR %Emax): 65.7 ± 6.4%; Emax (MOR [4]; read-out: MOR %Emax): 30.3 ± 3.7%; Antinociceptive effect in morphine-tolerated mice (mice [8]): retained its antinociceptive effect; Action time [9]: 3 to 4 h; Action time [10]: less than 2 hours; Respiratory depression (monkeys): did not induced respiratory depression
Cl.O=C(/C=C/c1ccoc1)N[C@H]1CC[C@@]2(O)[C@H]3Cc4ccc(O)c5c4[C@@]2(CCN3CC2CC2)[C@H]1O5 [Compound 9, (2E)-N-[6α-17-(Cyclopropylmethyl)-3,14-dihydroxy-4,5α-epoxy-morphinan-6-yl]-3-(3-furanyl)-2-propenamide hydrochloride]	10	0.6	16	73.7 ± 2.5%	15.3 ± 1.9 nM	108 ± 6%	83.6 ± 28.8 nM	25.9 ± 1.0%	8.41 ± 0.98 nM	Antinociceptive effect (%MPE) in single-dose screening (mice [5]; 10 mg/kg s.c., mice): no significant increase of %MPE
CN1CC[C@]23c4c5ccc(O)c4O[C@H]2[C@@H](O)C=C[C@H]3[C@H]1C5 [Morphine, reference compound]	–	–	–	–	–	–	–	–	–	Duration of antinociception (mice [5]; 10 mg/kg s.c., mice): approximately 3 hours; Time of peak antinociceptive effect (mice [5]; time-course study, s.c., mice): around 0.5 h; Weight change [11]: lost weight significantly after only one day
CN(C(=O)/C=C/c1ccoc1)[C@H]1CC[C@@]2(O)[C@H]3Cc4cccc5c4[C@@]2(CCN3CC2CC2)[C@H]1O5.Cl [Compound 15, (2E)-N-[6a-17-(Cyclopropylmethyl)-4,5a-epoxy-14-hydroxy-morphinan-6-yl]-3-(3-furanyl)-N-methyl-2-propenamide hydrochloride]	249	21	12	98.4 ± 2.4%	2.52 ± 0.38 nM	108 ± 7%	242 ± 28 nM	55.8 ± 2.9%	132 ± 10 nM	Antinociception potency ED50 (95% CL) (mice [5]; mice, s.c.): 0.341 (0.196 - 0.604) mg/kg
CC(CCc1ccccc1)NCC(O)c1ccc(O)c(C(N)=O)c1 (centres unmarked) [Labetalol]	–	–	–	–	–	–	–	–	–	%fa: extent of absorption in humans [12]: 90%; %fa: extent of absorption in humans ([12]; listed as labetalol): 90%; Papp A→B at 10 µM [6]: 18.5 ± 0.3 ×10⁻⁶ cm/s; Papp B→A at 10 µM [6]: 34.2 ± 0.4 ×10⁻⁶ cm/s
CNC(=C[N+](=O)[O-])NCCSCc1ccc(CN(C)C)o1 [Ranitidine]	–	–	–	–	–	–	–	–	–	%fa: extent of absorption in humans [12]: 50%; Papp A→B at 10 µM [6]: 0.5 ± 0.02 ×10⁻⁶ cm/s
